Assay results: ChEMBL document CHEMBL5120919, “Micrococcin P2 Targets Clostridioides difficile” (J Nat Prod, 2022)
Values after ≈ are worked out from the molar mass of the structure shown. Active and inactive are the calls of the source. The rule behind the calls is not given here.

Experiments:
Clostridioides difficile [1] = test: Antibacterial activity against Clostridioides difficile RT293/ST129 clinical isolate expressing A+B+ toxin assessed as inhibition of bacterial growth incubated for 24 hrs by CLSI based agar dilution method; format: functional
Clostridioides difficile [2] = test: Antibacterial activity against Clostridioides difficile RT002/ST8 clinical isolate expressing A+B+ toxin assessed as inhibition of bacterial growth incubated for 24 hrs by CLSI based agar dilution method; format: functional
SH-SY5Y = test: Cytotoxicity against human SH-SY5Y cells assessed as reduction in cell viability at 40 uM incubated for 48 hrs by CCK-8 assay; format: toxicity, cell-based
Clostridioides difficile [3] = test: Antibacterial activity against Clostridioides difficile RT015/ST35 clinical isolate expressing A+B+ toxin assessed as inhibition of bacterial growth incubated for 24 hrs by CLSI based agar dilution method; format: functional
[4] = MRT in Sprague-Dawley rat at 10 mg/kg, po measured up to 8 hrs by LC-MS/MS analysis; format: ADME, organism-based; settings: in vivo, BLD = below limit of detection
Clostridioides difficile [5] = test: Antibacterial activity against Clostridioides difficile RT018/ST17 clinical isolate expressing A+B+ toxin assessed as inhibition of bacterial growth incubated for 24 hrs by CLSI based agar dilution method; format: functional
[6] = MRT in Sprague-Dawley rat at 2 mg/kg, iv measured up to 8 hrs by LC-MS/MS analysis; format: ADME, organism-based; settings: in vivo
[7] = Half life in Sprague-Dawley rat at 2 mg/kg, iv measured up to 8 hrs by LC-MS/MS analysis; format: ADME, organism-based; settings: in vivo
Clostridioides difficile [8] = test: Antibacterial activity against Clostridioides difficile RT017/ST37 clinical isolate expressing A-B+ toxin assessed as inhibition of bacterial growth incubated for 24 hrs by CLSI based agar dilution method; format: functional
Clostridioides difficile [9] = test: Antibacterial activity against Clostridioides difficile RT001/ST3 clinical isolate expressing A+B+ toxin assessed as inhibition of bacterial growth incubated for 24 hrs by CLSI based agar dilution method; format: functional
[10] = AUClast in Sprague-Dawley rat at 2 mg/kg, iv measured up to 8 hrs by LC-MS/MS analysis; format: ADME, organism-based; set-up: time < 8 hrs, dose 2 mg/kg, route iv; settings: in vivo
Clostridioides difficile [11] = test: Antibacterial activity against Clostridioides difficile RT027/ST1 clinical isolate expressing A+B+CDT+ toxin assessed as inhibition of bacterial growth incubated for 24 hrs by CLSI based agar dilution method; format: functional
[12] = Clearance in Sprague-Dawley rat at 10 mg/kg, po measured up to 8 hrs by LC-MS/MS analysis; format: ADME, organism-based; settings: in vivo, BLD = below limit of detection
[13] = Clearance in Sprague-Dawley rat at 2 mg/kg, iv measured up to 8 hrs by LC-MS/MS analysis; format: ADME, organism-based; settings: in vivo
RAW264.7 [14] = test: Antiinflammatory activity in mouse RAW264.7 cells assessed as decrease in LPS induced IL-1beta expression in supernatant at 5 to 40 uM measured after 24 hrs by ELISA; format: functional, cell-based; settings: dose 5-40 µM
[15] = Volume of distribution at steady state in Sprague-Dawley rat at 2 mg/kg, iv measured up to 8 hrs by LC-MS/MS analysis; format: ADME, organism-based; settings: in vivo, read-out: Vdss
Clostridioides difficile [16] = test: Antibacterial activity against Clostridioides difficile RT012/ST54 clinical isolate expressing A+B+ toxin assessed as inhibition of bacterial growth incubated for 24 hrs by CLSI based agar dilution method; format: functional
Clostridioides difficile [17] = test: Antibacterial activity against Clostridioides difficile RT078/ST11 clinical isolate expressing A+B+CDT+ toxin assessed as inhibition of bacterial growth incubated for 24 hrs by CLSI based agar dilution method; format: functional
Clostridioides difficile [18] = test: Antibacterial activity against Clostridioides difficile RT130/ST5 clinical isolate expressing A+B+CDT+ toxin assessed as inhibition of bacterial growth incubated for 24 hrs by CLSI based agar dilution method; format: functional
Clostridioides difficile [19] = test: Antibacterial activity against Clostridioides difficile ST221 clinical isolate expressing A+B+CDT+ toxin assessed as inhibition of bacterial growth incubated for 24 hrs by CLSI based agar dilution method; format: functional
[20] = Volume of distribution at steady state in Sprague-Dawley rat at 10 mg/kg, po measured up to 8 hrs by LC-MS/MS analysis; format: ADME, organism-based; settings: in vivo, BLD = below limit of detection
HEK-293T = test: Cytotoxicity against HEK293T cells assessed as reduction in cell viability at 40 uM incubated for 48 hrs by CCK-8 assay; format: toxicity, cell-based; settings: human
Clostridioides difficile [21] = test: Antibacterial activity against Clostridioides difficile RT027 infected in DSS-induced IBD C57BL/6 mouse model assessed as survival rate at 30 mg/kg, po administered once daily for 5 days; format: functional; settings: time 5 day
Clostridioides difficile [22] = test: Antibacterial activity against Clostridioides difficile RT014/ST14 clinical isolate expressing A+B+ toxin assessed as inhibition of bacterial growth incubated for 24 hrs by CLSI based agar dilution method; format: functional
Clostridioides difficile [23] = test: Antibacterial activity against Clostridioides difficile RT027 assessed as regrowth of bacteria at 0.5 times MIC measured after 6 hrs by CLSI based time kill curve assay; format: functional, organism-based
Clostridioides difficile [24] = test: Antibacterial activity against Clostridioides difficile RT027 assessed as reduction in bacterial count at 1 to 4 times MIC measured after 24 hrs by CLSI based time kill curve assay; format: functional
RAW264.7 [25] = test: Antiinflammatory activity in mouse RAW264.7 cells assessed as decrease in LPS induced IL6 expression in supernatant at 5 to 40 uM measured after 24 hrs by ELISA; format: functional, cell-based; settings: dose 5-40 µM
[26] = Half life in Sprague-Dawley rat at 10 mg/kg, po measured up to 8 hrs by LC-MS/MS analysis; format: ADME, organism-based; settings: in vivo, BLD = below limit of detection
Clostridioides difficile [27] = test: Antibacterial activity against Clostridioides difficile RT027 assessed as reduction in bacterial count at 5 ug/ml measured after 24 hrs by CLSI based time kill curve assay; format: functional; settings: dose 5 µg/ml

Structure (SMILES)	MIC (Clostridioides difficile [1]) [µg/mL]	MIC (Clostridioides difficile [2]) [µg/mL]	MIC (Clostridioides difficile [3]) [µg/mL]	MIC (Clostridioides difficile [5]) [µg/mL]	MIC (Clostridioides difficile [8]) [µg/mL]	MIC (Clostridioides difficile [9]) [µg/mL]	MIC (Clostridioides difficile [11]) [µg/mL]	MIC (Clostridioides difficile [16]) [µg/mL]	MIC (Clostridioides difficile [17]) [µg/mL]	MIC (Clostridioides difficile [18]) [µg/mL]	MIC (Clostridioides difficile [19]) [µg/mL]	MIC (Clostridioides difficile [22]) [µg/mL]	other results
C/C=C(\NC(=O)c1csc(-c2csc(-c3ccc4c(n3)-c3csc(n3)[C@H]([C@@H](C)O)NC(=O)c3csc(n3)[C@H](C(C)C)NC(=O)c3csc(n3)/C(=C/C)NC(=O)[C@H]([C@@H](C)O)NC(=O)c3csc-4n3)n2)n1)C(=O)NCC(C)=O	1 (≈ 0.875 µM)	1 (≈ 0.875 µM)	1 (≈ 0.875 µM)	1 (≈ 0.875 µM)	1 (≈ 0.875 µM)	2 (≈ 1.75 µM)	1 (≈ 0.875 µM)	2 (≈ 1.75 µM)	1 (≈ 0.875 µM)	1 (≈ 0.875 µM)	2 (≈ 1.75 µM)	1 (≈ 0.875 µM)	Activity (SH-SY5Y): Non-Toxic; MRT [4]: Bld; MRT [6]: 24 min; half-life [7]: 48 min; AUC(0-t) at 8 h [10]: 374 ng·h/mL; CL [12]: Bld; clearance [13]: 88.9 mL/min/kg; Activity (RAW264.7 [14]): Active; Vd [15]: 2.1 L/kg; Vdss [20]: Bld; Activity (HEK-293T): Non-Toxic; Activity (Clostridioides difficile [21]): 100%; Activity (Clostridioides difficile [23]): Active; Activity (Clostridioides difficile [24]): 2.5 log10CFU; Activity (RAW264.7 [25]): Active; t1/2 [26]: Bld
CN[C@H](CC(C)C)C(=O)N[C@H]1C(=O)N[C@@H](CC(N)=O)C(=O)N[C@H]2C(=O)N[C@H]3C(=O)N[C@H](C(=O)N[C@H](C(=O)O)c4cc(O)cc(O)c4-c4cc3ccc4O)[C@H](O)c3ccc(c(Cl)c3)Oc3cc2cc(c3O[C@@H]2O[C@H](CO)[C@@H](O)[C@H](O)[C@H]2O[C@H]2C[C@](C)(N)[C@H](O)[C@H](C)O2)Oc2ccc(cc2Cl)[C@H]1O [VANCOMYCIN]	1 (≈ 0.69 µM)	1 (≈ 0.69 µM)	1 (≈ 0.69 µM)	0.5 (≈ 0.345 µM)	0.5 (≈ 0.345 µM)	1 (≈ 0.69 µM)	0.5 (≈ 0.345 µM)	1 (≈ 0.69 µM)	1 (≈ 0.69 µM)	0.5 (≈ 0.345 µM)	1 (≈ 0.69 µM)	1 (≈ 0.69 µM)	Activity (Clostridioides difficile [27]): 1.5 log10CFU
